# Data: patent US20230374015A1, “INHIBITORS OF FIBROBLAST GROWTH FACTOR RECEPTOR KINASES” (Kinnate Biopharma Inc., priority 2020, published 2023)
# Molecular target: FGFR2 (Homo sapiens, UniProt P21802)
# Experiment: FGFR2 Kinase Protocol - Condition 2 (Reaction Biology HotSpot radiometric kinase assay, no preincubation)
# Assay type: biochemical
# Conditions: poly[Glu:Tyr] (4:1) 0.2 mg/ml, ATP 100 microM, 2 hr room temperature
# Summary of the method: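 Radiometric HotSpot format: FGFR2 (wildtype or V564F) with poly[Glu:Tyr] (4:1) at 0.2 mg/ml in HEPES pH 7.5 buffer with 1% DMSO; ATP plus [γ33P]ATP at 100 µM total, added without preincubation. Reactions ran 2 hr at room temperature, then filter-bound. IC50 from 10-dose, 3-fold series versus DMSO control.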
# Chain of FGFR2 (P21802 22-821): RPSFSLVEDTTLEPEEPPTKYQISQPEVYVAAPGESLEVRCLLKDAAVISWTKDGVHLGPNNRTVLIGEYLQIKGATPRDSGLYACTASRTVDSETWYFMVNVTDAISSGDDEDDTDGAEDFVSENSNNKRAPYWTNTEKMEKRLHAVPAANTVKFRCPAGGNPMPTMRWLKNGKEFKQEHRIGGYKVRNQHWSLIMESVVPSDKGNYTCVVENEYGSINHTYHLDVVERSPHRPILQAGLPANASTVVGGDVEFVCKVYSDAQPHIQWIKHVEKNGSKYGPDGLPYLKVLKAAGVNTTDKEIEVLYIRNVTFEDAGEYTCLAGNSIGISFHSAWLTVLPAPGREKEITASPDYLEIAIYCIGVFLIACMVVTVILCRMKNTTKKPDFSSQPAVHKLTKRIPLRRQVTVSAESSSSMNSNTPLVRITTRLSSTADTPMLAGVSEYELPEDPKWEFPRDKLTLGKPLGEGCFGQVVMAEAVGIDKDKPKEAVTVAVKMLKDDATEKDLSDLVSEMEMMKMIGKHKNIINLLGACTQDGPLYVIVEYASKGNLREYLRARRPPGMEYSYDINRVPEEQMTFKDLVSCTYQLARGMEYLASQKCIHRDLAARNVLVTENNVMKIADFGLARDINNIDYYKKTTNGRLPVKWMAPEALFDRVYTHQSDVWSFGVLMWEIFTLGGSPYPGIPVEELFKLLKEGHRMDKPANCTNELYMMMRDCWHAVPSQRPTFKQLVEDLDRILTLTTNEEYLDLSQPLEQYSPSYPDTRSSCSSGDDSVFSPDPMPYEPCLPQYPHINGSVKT
row,Compound,IC50 [nM]
1,"C=CC(=O)N1CC[C@H](n2nc(C#Cc3cc4ncn(CC)c4c(F)c3Cl)c3c(N)nccc32)C1 [Example 136, (S)-1-(3-(4-Amino-3-((6-chloro-1-ethyl-7-fluoro-1H-benzo[d]imidazol-5-yl)ethynyl)-1H-pyrazolo[4,3-c]pyridin-1-yl)pyrrolidin-1-yl)prop-2-en-1-one]",≤ 100
2,"C=CC(=O)N1CC[C@H](n2nc(C#Cc3cc4ncn(C)c4cc3Cl)c3c(N)nccc32)C1 [Example 137, (S)-1-(3-(4-Amino-3-((6-chloro-1-methyl-1H-benzo[d]imidazol-5-yl)ethynyl)-1H-pyrazolo[4,3-c]pyridin-1-yl)pyrrolidin-1-yl)prop-2-en-1-one]",≤ 100
3,"C=CC(=O)N1C[C@@H](n2nc(C#Cc3cc4ncn(C5CC5)c4cc3Cl)c3c(N)nccc32)C[C@@H]1COC [Example 138, 1-[(2R,4S)-4-{4-Amino-3-[2-(6-chloro-1-cyclopropyl-1,3-benzodiazol-5-yl)ethynyl]pyrazolo[4,3-c]pyridin-1-yl}-2-(methoxymethyl)pyrrolidin-1-yl]prop-2-en-1-one]",≤ 100
4,"C=CC(=O)N1C[C@@H](n2nc(C#Cc3c(F)cc4c(ncn4C)c3F)c3c(N)ncnc32)C[C@@H]1COC(F)F [Example 139, 1-[(2R,4S)-4-{4-Amino-3-[2-(4,6-difluoro-1-methyl-1,3-benzodiazol-5-yl)ethynyl]pyrazolo[3,4-d]pyrimidin-1-yl}-2-[(difluoromethoxy)methyl]pyrrolidin-1-yl]prop-2-en-1-one]",≤ 100
5,"C=CC(=O)N1CC[C@H](n2nc(C#Cc3cc4ncn(C)c4cc3F)c3c(N)ncnc32)C1 [Example 140, 1-[(3S)-3-{4-Amino-3-[2-(6-fluoro-1-methyl-1,3-benzodiazol-5-yl)ethynyl]pyrazolo[3,4-d]pyrimidin-1-yl}pyrrolidin-1-yl]prop-2-en-1-one]",≤ 100
6,"C=CC(=O)N1CC[C@H](n2nc(C#Cc3cc4ncn(C)c4cc3F)c3c(N)nccc32)C1 [Example 141, 1-[(3S)-3-{4-Amino-3-[2-(6-fluoro-1-methyl-1,3-benzodiazol-5-yl)ethynyl]pyrazolo[4,3-c]pyridin-1-yl}pyrrolidin-1-yl]prop-2-en-1-one]",≤ 100
7,"C=CC(=O)N1CC[C@H](n2cc(C#Cc3cc4ncn(C)c4cc3F)c3c(N)ncnc32)C1 [Example 142, (S)-1-(3-(4-Amino-5-((6-fluoro-1-methyl-1H-benzo[d]imidazol-5-yl)ethynyl)-7H-pyrrolo[2,3-d]pyrimidin-7-yl)pyrrolidin-1-yl)prop-2-en-1-one]",≤ 100
8,"C=CC(=O)N1CC[C@H](n2cc(C#Cc3cc4ncn(CC)c4cc3Cl)c3c(N)ncnc32)C1 [Example 143, (S)-1-(3-(4-Amino-5-((6-chloro-1-ethyl-1H-benzo[d]imidazol-5-yl)ethynyl)-7H-pyrrolo[2,3-d]pyrimidin-7-yl)pyrrolidin-1-yl)prop-2-en-1-one]",≤ 100
9,"C=CC(=O)N1CC[C@H](n2nc(C#Cc3cc4ncn(CC)c4c(F)c3Cl)c3c(N)ncnc32)C1 [Example 144, 1-[(3S)-3-{4-Amino-3-[2-(6-chloro-1-ethyl-7-fluoro-1,3-benzodiazol-5-yl)ethynyl]pyrazolo[3,4-d]pyrimidin-1-yl}pyrrolidin-1-yl]prop-2-en-1-one]",≤ 100
10,"C=CC(=O)N1CC[C@H](n2nc(C#Cc3cc4ncn(C)c4c(F)c3Cl)c3c(N)ncnc32)C1 [Example 145, (S)-1-(3-(4-Amino-3-((6-chloro-7-fluoro-1-methyl-1H-benzo[d]imidazol-5-yl)ethynyl)-1H-pyrazolo[3,4-d]pyrimidin-1-yl)pyrrolidin-1-yl)prop-2-en-1-one]",≤ 100
11,"C=CC(=O)N1CC[C@H](n2nc(C#Cc3cc4ncn(C5CC5)c4cc3F)c3c(N)ncnc32)C1 [Example 146, (S)-1-(3-(4-Amino-3-((1-cyclopropyl-6-fluoro-1H-benzo[d]imidazol-5-yl)ethynyl)-1H-pyrazolo[3,4-d]pyrimidin-1-yl)pyrrolidin-1-yl)prop-2-en-1-one]",≤ 100
12,"C=CC(=O)N1CC[C@H](n2nc(C#Cc3cc4ncn(C)c4cc3Cl)c3c(N)ncnc32)C1 [Example 147, 1-[(3S)-3-{4-Amino-3-[2-(6-chloro-1-methyl-1,3-benzodiazol-5-yl)ethynyl]pyrazolo[3,4-d]pyrimidin-1-yl}pyrrolidin-1-yl]prop-2-en-1-one]",≤ 100
13,"C=CC(=O)N1CC[C@H](n2nc(C#Cc3cc4ncn(C)c4c(F)c3Cl)c3c(N)nccc32)C1 [Example 148, 1-[(3S)-3-{4-Amino-3-[2-(6-chloro-7-fluoro-1-methyl-1,3-benzodiazol-5-yl)ethynyl]pyrazolo[4,3-c]pyridin-1-yl}pyrrolidin-1-yl]prop-2-en-1-one]",≤ 100
14,"C=CC(=O)N1CC[C@H](n2nc(C#Cc3cc4ncn(C5CC5)c4cc3F)c3c(N)nccc32)C1 [Example 149, 1-[(3S)-3-{4-Amino-3-[2-(1-cyclopropyl-6-fluoro-1,3-benzodiazol-5-yl)ethynyl]pyrazolo[4,3-c]pyridin-1-yl}pyrrolidin-1-yl]prop-2-en-1-one]",≤ 100

# Second part, the molecule after the results:
row,IC50 [nM],Compound
1,≤ 100,"C=CC(=O)N1C[C@@H](n2nc(C#Cc3cc4nccn4cc3F)c3c(N)ncnc32)C[C@@H]1COC [Example 124, 1-((2R,4S)-4-(4-Amino-3-((6-fluoroimidazo[1,2-a]pyridin-7-yl)ethynyl)-1H-pyrazolo[3,4-d]pyrimidin-1-yl)-2-(methoxymethyl)pyrrolidin-1-yl)prop-2-en-1-one]"
2,≤ 100,"C=CC(=O)N1C[C@@H](n2nc(C#Cc3cc4nc(C)n(C)c4c(F)c3Cl)c3c(N)ncnc32)C[C@@H]1COC [Example 125, 1-[(2R,4S)-4-[4-Amino-3-[2-(6-chloro-7-fluoro-1,2-dimethyl-1,3-benzodiazol-5-yl)ethynyl]pyrazolo[3,4-d]pyrimidin-1-yl]-2-(methoxymethyl)pyrrolidin-1-yl]prop-2-en-1-one]"
3,≤ 100,"C=CC(=O)N1C[C@@H](n2nc(C#Cc3cc4ncn(C5CC5)c4cc3Cl)c3c(N)ncnc32)C[C@@H]1COC [Example 126, 1-[(2R,4S)-4-[4-Amino-3-[2-(6-chloro-1-cyclopropyl-1,3-benzodiazol-5-yl)ethynyl]pyrazolo[3,4-d]pyrimidin-1-yl]-2-(methoxymethyl)pyrrolidin-1-yl]prop-2-en-1-one]"
4,≤ 100,"C=CC(=O)N1C[C@@H](n2cc(C#Cc3cc4ncn(C5CC5)c4cc3Cl)c3c(N)ncnc32)C[C@@H]1COC [Example 127, 1-[(2R,4S)-4-[4-Amino-5-[2-(6-chloro-1-cyclopropyl-1,3-benzodiazol-5-yl)ethynyl]pyrrolo[2,3-d]pyrimidin-7-yl]-2-(methoxymethyl)pyrrolidin-1-yl] prop-2-en-1-one]"
5,≤ 100,"C=CC(=O)N1C[C@@H](n2nc(C#Cc3cc4ncn(CC)c4c(F)c3Cl)c3c(N)ncnc32)C[C@@H]1COC [Example 128, 1-[(2R,4S)-4-[4-amino-3-[2-(6-chloro-1-ethyl-7-fluoro-1,3-benzodiazol-5-yl)ethynyl]pyrazolo[3,4-d]pyrimidin-1-yl]-2-(methoxymethyl)pyrrolidin-1-yl]prop-2-en-1-one]"
6,≤ 100,"C=CC(=O)N1C[C@@H](n2nc(C#Cc3cc4nc(C)n(C(F)F)c4cc3Cl)c3c(N)ncnc32)C[C@@H]1COC [Example 129, 1-[(2R,4S)-4-(4-Amino-3-{2-[6-chloro-1-(difluoromethyl)-2-methyl-1,3-benzodiazol-5-yl]ethynyl}pyrazolo[3,4-d]pyrimidin-1-yl)-2-(methoxymethyl)pyrrolidin-1-yl]prop-2-en-1-one]"
7,≤ 100,"C=CC(=O)N1C[C@@H](n2nc(C#Cc3cc4nc(C)n(C(F)F)c4cc3Cl)c3c(N)nccc32)C[C@@H]1COC [Example 130, 1-[(2R,4S)-4-(4-Amino-3-{2-[6-chloro-1-(difluoromethyl)-2-methyl-1,3-benzodiazol-5-yl]ethynyl}pyrazolo[4,3-c]pyridin-1-yl)-2-(methoxymethyl)pyrrolidin-1-yl]prop-2-en-1-one]"
8,≤ 100,"C=CC(=O)N1C[C@@H](n2cc(C#Cc3cc4nc(C)n(C(F)F)c4cc3Cl)c3c(N)ncnc32)C[C@@H]1COC [Example 131, 1-[(2R,4S)-4-(4-Amino-5-{2-[6-chloro-1-(difluoromethyl)-2-methyl-1,3-benzodiazol-5-yl]ethynyl}pyrrolo[2,3-d]pyrimidin-7-yl)-2-(methoxymethyl)pyrrolidin-1-yl]prop-2-en-1-one]"
9,≤ 100,"C=CC(=O)N1CC[C@H](n2nc(C#Cc3cc4ncn(CC)c4cc3Cl)c3c(N)ncnc32)C1 [Example 132, 1-[(3S)-3-{4-Amino-3-[2-(6-chloro-1-ethyl-1,3-benzodiazol-5-yl)ethynyl]pyrazolo[3,4-d]pyrimidin-1-yl}pyrrolidin-1-yl]prop-2-en-1-one]"
10,≤ 100,"C=CC(=O)N1CC[C@H](n2nc(C#Cc3cc4ncn(CC)c4cc3Cl)c3c(N)nccc32)C1 [Example 133, (S)-1-(3-(4-Amino-3-((6-chloro-1-ethyl-1H-benzo[d]imidazol-5-yl)ethynyl)-1H-pyrazolo[4,3-c]pyridin-1-yl)pyrrolidin-1-yl)prop-2-en-1-one]"
11,≤ 100,"[2H]C([2H])([2H])OC[C@H]1C[C@H](n2nc(C#Cc3c(F)cc4c(ncn4C)c3F)c3c(N)ncnc32)CN1C(=O)C=C [Example 134, 1-[(2R,4S)-4-[4-Amino-3-[2-(4,6-difluoro-1-methyl-1,3-benzodiazol-5-yl)ethynyl]pyrazolo[3,4-d]pyrimidin-1-yl]-2-[(2H3)methoxymethyl]pyrrolidin-1-yl]prop-2-en-1-one]"
12,≤ 100,"[2H]C([2H])([2H])OC[C@H]1C[C@H](n2nc(C#Cc3cc4ncn(CC)c4cc3Cl)c3c(N)ncnc32)CN1C(=O)C=C [Example 135, 1-[(2R,4S)-4-[4-Amino-3-[2-(6-chloro-1-ethyl-1,3-benzodiazol-5-yl)ethynyl]pyrazolo[3,4-d]pyrimidin-1-yl]-2-[(2H3)methoxymethyl]pyrrolidin-1-yl]prop-2-en-1-one]"
